From patent US20090197852A9 (priority 2001, published 2009)
“Also recorded” adds a separate entry of the source. Read-outs that look alike come from different tables or passages of the source.

What was measured:
[1] = Dose limiting toxicity and adverse events in trial of 17-AAG with trastuzumab; settings: 450 mg/m^2/single administration of 17-AAG once weekly for four weeks
Procedure: The invention was tested in an open-label, dose escalating clinical trial. […] Metastatic disease, if present, was not progressing so as to required palliative treatment. […] Patients were assessed in 4-week cycles.
Dosing. […] If two or more of six evaluable patients entered in a cohort experienced a DLT then the MTD was exceeded; if the previous dose level produced DLT in no more than 1 out of 6 patients, then this dose was considered the MTD and was used for all subsequent patients entered in the phase 2 portion of the study.

NSCLC cells = settings: cited from earlier work
leukemia cells = settings: cited from earlier work
clinical = settings: human, in vivo; for AUC / AUC(0-t) / Tmax / Cmax: iv; for Cmax: first dose
Procedure: Patients were assessed in 4-week cycles.
PK assessment. PK sampling was obtained during the first treatment cycle only. […] Plasma concentrations were determined by a validated liquid chromatography-mass spectrometry (LC-MS) method.
For patients with a body surface area greater than 2.4 m^2, dosing was calculated using a maximum BSA of 2.4 m^2.
Plasma samples from some of the patients were assayed using a validated good laboratory practice (GLP) compliant analytical method.
All of the patients' plasma samples were analyzed.

[2] = test system: colon adenocarcinoma cells; settings: cited from earlier work
[3] = test system: SKBr3 breast cancer cells; settings: cited from earlier work
solid tumors = settings: cited from earlier work
[4] = test system: solid tumors and lymphomas; settings: 3 weeks out of a 4 week cycle, cited from earlier work
metastatic melanoma = settings: cited from earlier work
[5] = 80 mg/m^2 dose level, daily x5, cited from earlier work; for Cmax: read-out: plasma Cmax
[6] = cited from earlier work
[7] = test system: lung cancer cells with wild-type Rb; settings: cited from earlier work
advanced solid tumors = settings: cited from earlier work
breast cancer cells = settings: cited from earlier work
MEXF 276L melanoma cells = settings: cited from earlier work
[8] = patients treated at 56 mg/m^2; cited from earlier work
[9] = free base form; cited from earlier work
[10] = population PK analysis; cited from earlier work
[11] = cellular assays; cited from earlier work
[12] = All cohorts combined (225-450 mg/m^2), mean
[13] = Cohort 1, 17-AAG 225 mg/m^2 IV over 120 min with trastuzumab, first dose, mean
[14] = Cohort 2, 17-AAG 300 mg/m^2 IV over 120 min with trastuzumab, first dose, mean
[15] = Cohort 3, 17-AAG 375 mg/m^2 IV over 120 min with trastuzumab, first dose, mean
[16] = Cohort 4, 17-AAG 450 mg/m^2 IV over 120 min with trastuzumab, first dose, mean
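Wherever AUC is given: Open-label dose-escalation clinical trial, plasma drug levels measured by validated LC-MS, sampling during the first 4-week treatment cycle only.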
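Wherever MRT is given: Open-label dose-escalation clinical trial, plasma drug levels measured by validated LC-MS, sampling during the first 4-week treatment cycle only.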
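Wherever Tmax is given: Open-label dose-escalation clinical trial, plasma drug levels measured by validated LC-MS, sampling during the first 4-week treatment cycle only.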
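Wherever Vd is given: Open-label dose-escalation clinical trial, plasma drug levels measured by validated LC-MS, sampling during the first 4-week treatment cycle only.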

Structure (SMILES): C=CCNC1=C2C[C@@H](C)C[C@H](OC)[C@H](O)[C@@H](C)/C=C(\C)[C@H](OC(N)=O)[C@@H](OC)/C=C\C=C(/C)C(=O)NC(=CC1=O)C2=O [17-AAG, 17-allylamino-17-demethoxygeldanamycin]
- DLT [1]: without reaching DLT in any treated patient
- effect of exposure on client proteins (NSCLC cells): depletion of erbB1 and erbB2 levels
- effect of exposure on client proteins (leukemia cells): down-regulation of intracellular Bcr-Abl and c-Raf proteins and reduction of Akt kinase activity
- Clearance (clinical; [12]): 536 mL/min
- Clearance (clinical; All cohorts combined, Median): 497 mL/min
- MRT (clinical; [12]): 4.71 h
- MRT (clinical; All cohorts combined, Median): 4.26 h
- Vd (clinical; Vss, All cohorts combined (225-450 mg/m^2), mean): 147 ± 94.8 L
- Vd (clinical; Vss, All cohorts combined, Median): 128 L
- Vd (clinical; Vz, All cohorts combined (225-450 mg/m^2), mean): 187 ± 156 L
- Vd (clinical; Vz, All cohorts combined, Median): 146 L
- AUC (clinical; 225 mg/m2): 588 ng·h/mL
- AUC(0-t) (clinical; 225 mg/m2): 7950 ng·h/mL
- Tmax (clinical; 225 mg/m2): 1.8 h
- Cmax (clinical; 225 mg/m2, Cmax, Cohort 1, 17-AAG 225 mg/m^2 IV over 120 min with trastuzumab, mean): 3260 ng/mL
- AUC (clinical; 300 mg/m2): 281 ng·h/mL
- AUC(0-t) (clinical; 300 mg/m2): 15900 ng·h/mL
- Tmax (clinical; 300 mg/m2): 1.9 h
- Cmax (clinical; 300 mg/m2, Cmax, Cohort 2, 17-AAG 300 mg/m^2 IV over 120 min with trastuzumab, mean): 4050 ng/mL
- AUC (clinical; 375 mg/m2): 490 ng·h/mL
- AUC(0-t) (clinical; 375 mg/m2): 27500 ng·h/mL
- Tmax (clinical; 375 mg/m2): 1.9 h
- Cmax (clinical; 375 mg/m2, Cmax, Cohort 3, 17-AAG 375 mg/m^2 IV over 120 min with trastuzumab, mean): 9400 ng/mL
- AUC (clinical; 450 mg/m2): 558 ng·h/mL
- AUC(0-t) (clinical; 450 mg/m2): 27900 ng·h/mL
- Tmax (clinical; 450 mg/m2): 2 h
- Cmax (clinical; 450 mg/m2, Cmax, Cohort 4, 17-AAG 450 mg/m^2 IV over 120 min with trastuzumab, mean): 8110 ng/mL
- half-life (clinical; t1/2, All cohorts combined (225-450 mg/m^2), mean): 4.13 ± 2.48 h
- half-life (clinical; t1/2, All cohorts combined, Median): 3.42 h
- effect of exposure on client proteins [2]: depletion of Raf-1, c-Akt, and Erk1/2
- effect of exposure on client proteins [3]: depletion of erbB2 and destabilization of Raf-1 and mutant p53
- MRT (All cohorts combined, Max): 11.44 h
- Vss (All cohorts combined, Max): 308.74 L/m^2
- t1/2 (All cohorts combined, Max): 11.42 h
- MRT (All cohorts combined, Min): 2.44 h
- t1/2 (All cohorts combined, Min): 1.33 h
- AUCext [13]: 7.1%
- AUCtotal [13]: 8,539.3 ng/mL*h
- AUMCtotal [13]: 29,168 ng/mL*(h^2)
- Cmax [13]: 3,257.5 ng/mL
- Lz [13]: 0.3804 h⁻¹
- AUCext [14]: 1.6%
- AUCtotal [14]: 16,163 ng/mL*h
- AUMCtotal [14]: 107,072 ng/mL*(h^2)
- Lz [14]: 0.1637 h⁻¹
- AUCext [15]: 2.2%
- AUCtotal [15]: 27,983 ng/mL*h
- AUMCtotal [15]: 124,179 ng/mL*(h^2)
- Lz [15]: 0.1996 h⁻¹
- AUCext [16]: 2.8%
- AUCtotal [16]: 28,425 ng/mL*h
- AUMCtotal [16]: 65,954 ng/mL*(h^2)
- Lz [16]: 0.2037 h⁻¹
- dose limiting toxicity (solid tumors; daily for 5 days every 3 weeks): dose limiting reversible hepatotoxicity
- maximum tolerated dose (MTD) and recommended Phase 2 dose (solid tumors; daily for 5 days every 3 weeks): 40 mg/m^2
- objective tumor responses (solid tumors; doses up to 110 mg/m^2 daily for 5 days every 3 weeks): No objective tumor responses were observed
- MTD ([4]; weekly 17-AAG): 308 mg/m^2
- objective tumor responses ([4]; weekly): No objective tumor responses have been observed to date in this trial
- complete or partial responses (metastatic melanoma; once weekly): No complete or partial responses were recorded
- dose at which dose limiting toxicity was observed (metastatic melanoma; once weekly, elevation of AST): 450 mg/m^2/week
- stable disease (metastatic melanoma; patients treated at 320-450 mg/m^2): two showed radiologically documented long term stable disease
- Cmax [5]: 2700 nM
- relation between dose and area under the curve (AUC) ([6]; dose levels studied): linear correlation
- mean volume of distribution ([6]; highest dose level 450 mg/m^2): 142.6 L
- effect of exposure on client proteins [7]: degradation of cdk4, cdk6, and cyclin E
- dose at which nausea and vomiting secondary to pancreatitis and grade 3 fatigue were observed (advanced solid tumors; weekly for 3 out of every 4 weeks): 395 mg/m^2
- objective tumor responses (advanced solid tumors; weekly or twice weekly schedules): No objective tumor responses have been observed in this trial to date
- effect of exposure on client proteins (breast cancer cells): depletion of steroid receptors
- effect of exposure on client proteins (MEXF 276L melanoma cells): depletion of Hsp90 and down-regulation of Raf-1 and erbB2
- Clearance [8]: 19.9 L/h/m^2
- Vz [8]: 93 L/m^2
- average AUC [8]: 6,708 nM*h

Structure (SMILES): C=CCNc1c(O)cc2c(O)c1C[C@@H](C)C[C@H](OC)[C@H](O)[C@@H](C)/C=C(\C)[C@H](OC(N)=O)[C@@H](OC)/C=C\C=C(/C)C(=O)N2 [17-AAGH2, 17-allylamino-18,21-dihydro-17-demethoxygeldanamycin]
- stability to air oxidation [9]: air oxidizes readily

Structure (SMILES): CO[C@H]1/C=C\C=C(/C)C(=O)NC2=CC(=O)C(N)=C(C[C@@H](C)C[C@H](OC)[C@H](O)[C@@H](C)/C=C(\C)[C@@H]1OC(N)=O)C2=O [17-AG, 17-amino-17-demethoxygeldanamycin]
- Clearance [10]: 21.3 L/h
- activity relative to 17-AAG [11]: equipotent; also recorded: activity approximately equal to that of 17-AAG
- t1/2 [5]: 1.75 h
- Cmax [5]: 607 nM
- Clearance [8]: 30.8 L/h/m^2
- Vz [8]: 203 L/m^2
- average AUC [8]: 5,558 nM*h
- average t1/2 [8]: 8.6 h
